Assay results published in patent US8153818B2, “Triazolyl phenyl benzenesulfonamides” (ChemoCentryx, Inc., priority 2006, dated 2012).

Biological target: T1, CCR9 (Homo sapiens, UniProt P51686)
T1 construct: chemokine expressing cells (such as THP-1 cells for CCR2 assay or MOLT-4 cells for CCR9 assay); host or cells: MOLT-4
T1 sequence (P51686 1-369): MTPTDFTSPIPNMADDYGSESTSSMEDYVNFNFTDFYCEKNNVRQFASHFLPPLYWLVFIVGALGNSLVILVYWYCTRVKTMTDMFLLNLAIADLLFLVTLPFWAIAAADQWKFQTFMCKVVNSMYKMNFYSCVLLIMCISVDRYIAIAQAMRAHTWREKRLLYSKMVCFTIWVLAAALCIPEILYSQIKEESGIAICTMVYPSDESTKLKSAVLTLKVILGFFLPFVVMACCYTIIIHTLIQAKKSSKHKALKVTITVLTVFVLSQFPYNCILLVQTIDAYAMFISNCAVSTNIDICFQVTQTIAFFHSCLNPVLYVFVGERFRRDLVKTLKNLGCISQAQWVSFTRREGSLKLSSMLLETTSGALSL
Experiment: CCR9 activity in one of the chemotaxis, binding or calcium mobilization assays
Assay type: cell-based
Details: assay not specified per compound
Experimental: Conventional migration assay was used to determine the efficacy of potential receptor antagonists in blocking migration mediated through chemokines (such as CCR2 or CCR9). This assay was routinely performed using the ChemoTX® microchamber system with a 5-μm pore-sized polycarbonate membrane. To begin such an assay, chemokine expressing cells (such as THP-1 cells for CCR2 assay or MOLT-4 cells for CCR9 assay) were harvested by centrifugation of cell suspension at 1000 RPM on a GS-6R Beckman centrifuge. The cell pellet was resuspended in chemotaxis buffer (HBSS with 0.1% BSA) at 10×10^6 cells/mL for CCR2 assay (5×10^6 cells/mL for CCR9 assay). Test compounds at desired concentrations were prepared from 10 mM stock solutions by serial dilutions in chemotaxis buffer. An equal volume of cells and compounds were mixed and incubated at room temperature for 15 minutes. Afterwards, 20 μL of the mixture was transferred onto the porous membrane of a migration microchamber, with 29 μL of chemokine ligand (0.1 nM chemokine MCP-1 protein for CCR2 assay or […] chemokine TECK protein for CCR9 assay) placed at the lower chamber. Following an incubation at 37° C. (90-minute for CCR2; 150-minute for CCR9), during which cells migrated against the chemokine gradient, the assay was terminated by removing the cell drops from atop the filter. To quantify cells migrated across the membrane, 5 μL of 7×CyQUANT® solution was added to each well in the lower chamber, and the fluorescence signal measured on a Spectrafluor Plus fluorescence plate reader (TECAN, Durham, N.C.). The degree of inhibition was determined by comparing migration signals between compound-treated and untreated cells. IC50 calculation was further performed by non-linear squares regression analysis using Graphpad Prism (Graphpad Software, San Diego, Calif.).
Calcium flux assay measures an increase in intracellular calcium following ligand-induced receptor activation. In the screen of chemokine antagonists, it was used as a secondary assay carried out on a FLIPR® machine (Molecular Devices, Mountain View, Calif.). To begin an assay, chemokine expressing cells (such as THP-1 cells for CCR2 assay or MOLT-4 cells for CCR9 assay) were harvested by centrifugation of cell suspension, and resuspended to 1.5×10^6 cells/mL in HBSS (with 1% fetal calf serum). Cells were then labeled with a calcium indicator dye Fluo-4 AM for 45 minutes at 37° C. with gentle shaking. Following incubation, cells were pelletted, washed once with HBSS and resuspended in the same buffer at a density of 1.6×10^6 cells/mL. One hundred microliters of labeled cells were mixed with 10 μL of test compound at the appropriate concentrations on an assay plate. Chemokine protein (MCP-1 at a final concentration of 0.1 nM for CCR2 assay or TECK at a final concentration of 25 nM for CCR9 assay) to activate the receptor. The degree of inhibition was determined by comparing calcium signals between compound-treated and untreated cells. IC50 calculations were further performed by non-linear squares regression analysis using Graphpad Prism (Graphpad Software, San Diego, Calif.). […]
In the tables below, structures and activity are provided for representative compounds described herein. Activity is provided as follows for either or both of the chemotaxis assay and/or calcium mobilization assays, described above.

Structure (SMILES)	IC50
CCOC(=O)Cc1nnc(-c2cc(Cl)c(F)cc2NS(=O)(=O)c2ccc(C(C)(C)C)cc2)n1C [Compound 64, ethyl 2-(5-(2-(4-tert-butylphenylsulfonamido)-5-chloro-4-fluorophenyl)-4-methyl-4H-1,2,4-triazol-3-yl)acetate]	< 1 µM
Cn1c(CC(C)(C)O)nnc1-c1cc(Cl)c(F)cc1NS(=O)(=O)c1ccc(C(C)(C)C)cc1 [Compound 65, 4-tert-butyl-N-(4-chloro-5-fluoro-2-(5-(2-hydroxy-2-methylpropyl)-4-methyl-4H-1,2,4-triazol-3-yl)phenyl)benzenesulfonamide]	< 1 µM
Cn1c(CN2CCOCC2)nnc1-c1cc(Cl)c(F)cc1NS(=O)(=O)c1ccc(C(C)(C)C)cc1 [Compound 66]	< 1 µM
Cn1c(CS(C)(=O)=O)nnc1-c1cc(Cl)c(F)cc1NS(=O)(=O)c1ccc(C(C)(C)C)cc1 [Compound 67, 4-tert-butyl-N-(4-chloro-5-fluoro-2-(4-methyl-5-(methylsulfonylmethyl)-4H-1,2,4-triazol-3-yl)phenyl)benzenesulfonamide]	< 1 µM
Cc1nnc(-c2cc(Cl)ccc2NS(=O)(=O)c2ccc(OC(C)C)cc2)n1C [Compound 68, N-(4-chloro-2-(4,5-dimethyl-4H-1,2,4-triazol-3-yl)phenyl)-4-isopropoxybenzenesulfonamide]	< 1 µM
CC(C)Oc1ccc(S(=O)(=O)Nc2ccc(Cl)cc2-c2nncn2C(C)C)cc1 [Compound 69, N-(4-chloro-2-(4-isopropyl-4H-1,2,4-triazol-3-yl)phenyl)-4-isopropoxybenzenesulfonamide]	< 1 µM
Cn1c(-c2cc(Cl)ccc2NS(=O)(=O)c2ccc(C(C)(C)C)cc2)nnc1C1CCNCC1 [Compound 70]	< 1 µM
CCn1c(C)nnc1-c1cc(F)c(F)cc1NS(=O)(=O)c1ccc(C(C)(C)C)cc1 [Compound 71, 4-tert-butyl-N-(2-(4-ethyl-5-methyl-4H-1,2,4-triazol-3-yl)-4,5-difluorophenyl)benzenesulfonamide]	< 1 µM
Cc1nnc(-c2ccc(F)cc2NS(=O)(=O)c2ccc(C(C)(C)C)cc2)n1C [Compound 72, 4-tert-butyl-N-(2-(4,5-dimethyl-4H-1,2,4-triazol-3-yl)-5-fluorophenyl)benzenesulfonamide]	< 1 µM
Cc1nnc(-c2cc(Cl)ccc2NS(=O)(=O)c2ccc(C(C)(C)C)cc2)n1[C@@H]1CCNC1 [Compound 73]	< 1 µM
CCn1c(C)nnc1-c1ccc(F)cc1NS(=O)(=O)c1ccc(C(C)(C)C)cc1 [Compound 74, 4-tert-butyl-N-(2-(4-ethyl-5-methyl-4H-1,2,4-triazol-3-yl)-5-fluorophenyl)benzenesulfonamide]	< 1 µM
CC(C)(C)c1ccc(S(=O)(=O)Nc2ccc(Cl)cc2-c2nncn2[C@@H]2CCNC2)cc1 [Compound 75]	< 1 µM
Cn1cnnc1-c1cc(Cl)c(F)cc1NS(=O)(=O)c1ccc(C(C)(C)C)cc1 [Compound 76, 4-tert-butyl-N-(4-chloro-5-fluoro-2-(4-methyl-4H-1,2,4-triazol-3-yl)phenyl)benzenesulfonamide]	< 1 µM
Cc1nnc(-c2cc(F)c(F)cc2NS(=O)(=O)c2ccc(C(C)(C)C)cc2)n1[C@H]1CCNC1 [Compound 77, (S)-4-tert-butyl-N-(4,5-difluoro-2-(5-methyl-4-(pyrrolidin-3-yl)-4H-1,2,4-triazol-3-yl)phenyl)benzenesulfonamide]	< 1 µM
CC(C)n1cnnc1-c1cc(Cl)c(F)cc1NS(=O)(=O)c1ccc(C(C)(C)C)cc1 [Compound 78, 4-tert-butyl-N-(4-chloro-5-fluoro-2-(4-isopropyl-4H-1,2,4-triazol-3-yl)phenyl)benzenesulfonamide]	< 1 µM
Cc1ocnc1-c1nnc(-c2cc(Cl)c(F)cc2NS(=O)(=O)c2ccc(C(C)(C)C)cc2)n1C [Compound 79]	< 1 µM
Cc1nnc(-c2cc(Cl)c(F)cc2NS(=O)(=O)c2ccc(C(C)(C)C)cc2)n1C1CCOC1 (stereo not drawn) [Compound 80]	< 1 µM

Structure (SMILES)	IC50
CC(C)c1nnc(-c2cc(Cl)c(F)cc2NS(=O)(=O)c2ccc(C(C)(C)C)cc2)n1C1CCOC1 (stereo not drawn) [Compound 81]	< 1 µM
CC(C)n1c(-c2cc(Cl)c(F)cc2NS(=O)(=O)c2ccc(C(C)(C)C)cc2)nnc1C1CCOC1 (stereo not drawn) [Compound 82]	< 1 µM
Cc1nnc(-c2cc(Cl)ccc2NS(=O)(=O)c2ccc(C(C)(C)C)cc2)n1CCN [Compound 83, N-(2-(4-(2-aminoethyl)-5-methyl-4H-1,2,4-triazol-3-yl)-4-chlorophenyl)-4-tert-butylbenzenesulfonamide]	< 1 µM
Cc1nnc(-c2cc(Cl)ccc2NS(=O)(=O)c2ccc(C(C)(C)C)cc2)n1C1CCC1 [Compound 84, 4-tert-butyl-N-(4-chloro-2-(4-cyclobutyl-5-methyl-4H-1,2,4-triazol-3-yl)phenyl)benzenesulfonamide]	< 1 µM
CC(C)(C)c1ccc(S(=O)(=O)Nc2cc(F)c(Cl)cc2-c2nncn2C2CNC2)cc1 [Compound 85]	< 1 µM
CC(C)n1c(-c2cc(Cl)ccc2NS(=O)(=O)c2ccc(C(C)(C)C)cc2)nnc1C(F)(F)F [Compound 86, 4-tert-butyl-N-(4-chloro-2-(4-isopropyl-5-(trifluoromethyl)-4H-1,2,4-triazol-3-yl)phenyl)benzenesulfonamide]	< 1 µM
CCn1c(-c2cc(Cl)c(F)cc2NS(=O)(=O)c2ccc(C(C)(C)C)cc2)nnc1C(C)C [Compound 87, 4-tert-butyl-N-(4-chloro-2-(4-ethyl-5-isopropyl-4H-1,2,4-triazol-3-yl)-5-fluorophenyl)benzenesulfonamide]	< 1 µM
CCc1nnc(-c2cc(Cl)c(F)cc2NS(=O)(=O)c2ccc(C(C)(C)C)cc2)n1[C@H]1CCNC1 [Compound 88]	< 1 µM
Cn1c(CCS(C)(=O)=O)nnc1-c1cc(Cl)c(F)cc1NS(=O)(=O)c1ccc(C(C)(C)C)cc1 [Compound 89, 4-tert-butyl-N-(4-chloro-5-fluoro-2-(4-methyl-5-(2-(methylsulfonyl)ethyl)-4H-1,2,4-triazol-3-yl)phenyl)benzenesulfonamide]	< 1 µM
CC(C)(C)c1ccc(S(=O)(=O)Nc2cc(F)c(Cl)cc2-c2nncn2[C@H]2CCNC2=O)cc1 [Compound 90]	< 1 µM
CC(=O)N1CCC(n2c(C)nnc2-c2cc(Cl)ccc2NS(=O)(=O)c2ccc(C(C)(C)C)cc2)CC1 [Compound 91]	< 1 µM
CC(C)n1c(N)nnc1-c1cc(Cl)ccc1NS(=O)(=O)c1ccc(C(C)(C)C)cc1 [Compound 92, N-(2-(5-amino-4-isopropyl-4H-1,2,4-triazol-3-yl)-4-chlorophenyl)-4-tert-butylbenzenesulfonamide]	< 1 µM
Cc1nnc(-c2cc(Cl)ccc2NS(=O)(=O)c2ccc(C(C)(C)C)cc2)n1C1CCN(S(C)(=O)=O)CC1 [Compound 93]	< 1 µM
Cc1nnc(-c2cc(Cl)ccc2NS(=O)(=O)c2ccc(C(C)(C)C)cc2)n1C1CCN(C(N)=O)CC1 [Compound 94]	< 1 µM
Cc1nnc(-c2ccc(Cl)cc2NS(=O)(=O)c2ccc(C(C)(C)C)cc2)n1C(C)C [Compound 95, 4-tert-butyl-N-(5-chloro-2-(4-isopropyl-5-methyl-4H-1,2,4-triazol-3-yl)phenyl)benzenesulfonamide]	< 1 µM
COCc1nnc(-c2cc(Cl)ccc2NS(=O)(=O)c2ccc(C(C)(C)C)cc2)n1C(C)C [Compound 96, 4-tert-butyl-N-(4-chloro-2-(4-isopropyl-5-(methoxymethyl)-4H-1,2,4-triazol-3-yl)phenyl)benzenesulfonamide]	< 1 µM
